From patent US20240083861A1, “HSD17B13 INHIBITORS AND USES THEREOF” (FL2022-001, Inc., priority 2020, published 2024)

Biological target: T1, Recombinant human HSD17B13 enzyme (Homo sapiens, UniProt Q7Z5P4)
T1 sequence (Q7Z5P4 20-300): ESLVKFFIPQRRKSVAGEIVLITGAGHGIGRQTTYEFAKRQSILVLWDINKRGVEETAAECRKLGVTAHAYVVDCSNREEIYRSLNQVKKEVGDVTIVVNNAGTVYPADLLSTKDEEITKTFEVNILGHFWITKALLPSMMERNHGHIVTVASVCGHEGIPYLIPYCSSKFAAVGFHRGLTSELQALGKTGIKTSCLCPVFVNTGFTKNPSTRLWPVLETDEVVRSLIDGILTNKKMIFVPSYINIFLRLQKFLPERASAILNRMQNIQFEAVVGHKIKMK
Assay: HSD17b13 NAD(P)H-Glo biochemical assay
Details: 50 uM estradiol, 1 mM NAD+, NAD(P)H-Glo luminescence; read-out: HSD17β13 IC50
Outline: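 Recombinant human HSD17B13 in 20 mM Tris pH7.4 with 0.002% Tween-20 and 0.02% BSA was preincubated with inhibitor for 20 minutes at RT. The reaction ran 3 hours at 37° C with 50 uM estradiol and 1 mM NAD+ (final). NADH formed was detected by NAD(P)H-Glo luminescence after 1 hour at RT.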

| Compound | IC50 |
| --- | --- |
| Cn1nc(-c2cc(C(F)(F)F)c(F)c(O)c2F)c2cnc(N3CCOC(CC(=O)O)C3)nc21 (stereo not drawn) [Compound 18.57, 2-(4-(3-(2,4-Difluoro-3-hydroxy-5-(trifluoromethyl)phenyl)-1-methyl-1H-pyrazolo[3,4-d]pyrimidin-6-yl)morpholin-2-yl)acetic Acid] | 1000 to 30000 nM |
| Cn1cc(C2CN(c3ncc4c(-c5cc(C(F)(F)F)c(F)c(O)c5F)nn(C)c4n3)CCO2)cn1 (stereo not drawn) [Compound 18.58, 2,6-Difluoro-3-(1-methyl-6-(2-(1-methyl-1H-pyrazol-4-yl)morpholino)-1H-pyrazolo[3,4-d]pyrimidin-3-y1)-5-(trifluoromethyl)phenol] | < 100 nM |
| Cn1nc(-c2cc(C(F)(F)F)c(F)c(O)c2F)c2cnc(N3CCOC(C4CC4)C3)nc21 (stereo not drawn) [Compound 18.59, 3-(6-(2-Cyclopropylmorpholino)-1-methyl-1H-pyrazolo[3,4-d]pyrimidin-3-y1)-2,6-difluoro-5-(trifluoromethyl)phenol] | < 100 nM |
| Cn1nc(-c2cc(C(F)(F)F)c(F)c(O)c2F)c2cnc(N3CCC(N4CCOCC4)CC3)nc21 [Compound 18.60, 2,6-Difluoro-3-(1-methyl-6-(4-morpholinopiperidin-1-yl)-1H-pyrazolo[3,4-d]pyrimidin-3-y1)-5-(trifluoromethyl)phenol] | 100 to 1000 nM |
| COC1(C)CCN(c2ncc3c(-c4cc(C(F)(F)F)c(F)c(O)c4F)nn(C)c3n2)CC1 [Compound 18.61, 2,6-Difluoro-3-(6-(4-methoxy-4-methylpiperidin-1-yl)-1-methyl-1H-pyrazolo[3,4-d]pyrimidin-3-yl)-5-(trifluoromethyl)phenol] | < 100 nM |
| Cn1nc(-c2cc(C(F)(F)F)c(F)c(O)c2F)c2cnc(N3CCN(S(C)(=O)=O)C4(CC4)C3)nc21 [Compound 18.62, 2,6-Difluoro-3-(1-methyl-6-(4-(methylsulfony1)-4,7-diazaspiro [2.5]octan-7-y1)-1H-pyrazolo[3,4-d]pyrimidin-3-y1)-5-(trifluoromethyl)phenol] | < 100 nM |
| Cn1nc(-c2cc(C(F)(F)F)c(F)c(O)c2F)c2cnc(N3CCN(S(C)(=O)=O)C4(CCC4)C3)nc21 [Compound 18.63, 2,6-Difluoro-3-(1-methyl-6-(5-(methylsulfony1)-5,8-diazaspiro[3.5]nonan-8-yl)-1H-pyrazolo[3,4-d]pyrimidin-3-y1)-5-(trifluoromethyl)phenol] | < 100 nM |
| Cn1nc(-c2cc(C(F)(F)F)c(F)c(O)c2F)c2cnc(N3CCN(S(C)(=O)=O)C(C)(C)C3)nc21 [Compound 18.64, 3-(6-(3,3-Dimethyl-4-(methylsulfonyl)piperazin-1-y1)-1-methyl-1H-pyrazolo[3,4-d]pyrimidin-3-y1)-2,6-difluoro-5-(trifluoromethyl)phenol] | < 100 nM |
| Cn1nc(-c2cc(C(F)(F)F)c(F)c(O)c2F)c2cnc(N3CCC(C)(O)CC3)nc21 [Compound 18.65, 1-(3-(2,4-Difluoro-3-hydroxy-5-(trifluoromethyl)phenyl)-1-methyl-1H-pyrazolo[3,4-d]pyrimidin-6-yl)-4-methylpiperidin-4-ol] | < 100 nM |
| CCC1(O)CCN(c2ncc3c(-c4cc(C(F)(F)F)c(F)c(O)c4F)nn(C)c3n2)CC1 [Compound 18.66, 1-(3-(2,4-Difluoro-3-hydroxy-5-(trifluoromethyl)phenyl)-1-methyl-1H-pyrazolo[3,4-d]pyrimidin-6-yl)-4-ethylpiperidin-4-ol] | < 100 nM |
| CC(C)C1(O)CCN(c2ncc3c(-c4cc(C(F)(F)F)c(F)c(O)c4F)nn(C)c3n2)CC1 [Compound 18.67, 1-(3-(2,4-Difluoro-3-hydroxy-5-(trifluoromethyl)phenyl)-1-methyl-1H-pyrazolo[3,4-d]pyrimidin-6-yl)-4-isopropylpiperidin-4-ol] | < 100 nM |
| CCOC1(C)CCN(c2ncc3c(-c4cc(C(F)(F)F)c(F)c(O)c4F)nn(C)c3n2)CC1 [Compound 18.68, 3-(6-(4-Ethoxy-4-methylpiperidin-1-y1)-1-methyl-1H-pyrazolo[3,4-d]pyrimidin-3-y1)-2,6-difluoro-5-(trifluoromethyl)phenol] | < 100 nM |
